# Patent publication US4259235A, “Tricyclic nitrogenous compounds having string plant growth regulating properties” (BASF Aktiengesellschaft, priority 1977, dated 1981)
# What was measured:
# spring barley [1] = assay: Growth height of spring barley, soil treatment, Example 10; format: in vivo, spring barley ("Union" variety)
# Protocol: (§1) Spring wheat ("Opal" variety) and spring barley ("Union" variety) were grown under greenhouse conditions in plastic dishes 11.5 cm in diameter, in a peat substrate provided with sufficient nutrients. For the soil (preemergence) treatment, the active ingredients were poured, at two application rates, as aqueous formulations onto the surface of the substrate after sowing.
# (§2) The plant height was measured at the end of the experiment. The figures obtained show the shortening effect of the active ingredients under investigation. The prior art compound β-chloroethylphosphonic acid (Ethephon, German Printed Application DAS No. 1,667,968) was used for comparison purposes.
# spring wheat [2] = assay: Growth height of spring wheat, soil treatment, Example 10; format: in vivo, spring wheat ("Opal" variety)
# Protocol: as §1, §2
# spring barley [3] = assay: Growth height of spring barley, leaf treatment, Example 10; format: in vivo, spring barley ("Union" variety)
# Protocol: as §1
# (§3) Leaf treatment was effected by spraying the plants at a growth height of 10 cm with aqueous formulations of the active ingredients at two application rates.
# as §2
# spring wheat [4] = assay: Growth height of spring wheat, leaf treatment, Example 10; format: in vivo, spring wheat ("Opal" variety)
# Protocol: as §1, §3, §2
# grass = assay: Growth height of, and amount of mowings in, grass, Example 12; format: in vivo; details: for First mowing, growth height, relative / First mowing, mowings, relative / Second mowing, growth height, relative / Second mowing, mowings, relative: control = 100
# Source text: In an experiment in large vessels, lawn seed of the following standard composition was sown in a loamy soil: Agrostis tenuis (10%), Cynosurus cristatus (10%), Festuca rubra (15%), Lolium perenne (35%) and Poa pratensis (30%). 1.5 g of N as ammonium nitrate and 1 g of P2 O5 as secondary potassium phosphate were applied as fertilizer. After the grass had been cut twice, the active ingredients were sprayed in conventional manner at various application rates onto the grass which was 4 cm high. The growth height and the mowings were determined 19 days after the treatment. Compared with the control, the treated plants reacted with most considerable height reductions and a proportionate decrease in mowings.
structure (smiles),measurement,setting,value
COc1ccc(C2=NOC3C4CC(C5N=NC45)C23)cc1 (stereo not shown) [drawing 408],Plant height,spring barley [1]; 3 kg/ha,30.0 cm
same,"Plant height, % of untreated control",spring barley [1]; 3 kg/ha,87.5%
same,Plant height,spring barley [1]; 12 kg/ha,29.0 cm
same,"Plant height, % of untreated control",spring barley [1]; 12 kg/ha,84.5%
Clc1ccc(C2=NOC3C4CC(C5N=NC45)C23)cc1 (stereo not shown) [drawing 409],Plant height,spring barley [1]; 3 kg/ha,26.0 cm
same,"Plant height, % of untreated control",spring barley [1]; 3 kg/ha,75.8%
same,Plant height,spring barley [1]; 12 kg/ha,24.0 cm
same,"Plant height, % of untreated control",spring barley [1]; 12 kg/ha,70.0%
Brc1ccc(C2=NOC3C4CC(C5N=NC45)C23)cc1 (stereo not shown) [drawing 393],Plant height,spring wheat [2]; 3 kg/ha,26.5 cm
same,"Plant height, % of untreated control",spring wheat [2]; 3 kg/ha,82.8%
same,Plant height,spring wheat [2]; 12 kg/ha,25.5 cm
same,"Plant height, % of untreated control",spring wheat [2]; 12 kg/ha,79.7%
O=[N+]([O-])c1ccc(C2=NOC3C4CC(C5N=NC45)C23)cc1 (stereo not shown) [drawing 394],Plant height,spring wheat [2]; 3 kg/ha,25.5 cm
same,"Plant height, % of untreated control",spring wheat [2]; 3 kg/ha,79.7%
same,Plant height,spring wheat [2]; 12 kg/ha,22.0 cm
same,"Plant height, % of untreated control",spring wheat [2]; 12 kg/ha,68.8%
Cc1ccc(C2=NOC3C4CC(C5N=NC45)C23)cc1 (stereo not shown) [drawing 413],Plant height,spring barley [3]; 1.5 kg/ha,25.5 cm
same,"Plant height, % of untreated control",spring barley [3]; 1.5 kg/ha,91.1%
same,Plant height,spring barley [3]; 6.0 kg/ha,25.0 cm
same,"Plant height, % of untreated control",spring barley [3]; 6.0 kg/ha,89.3%
Brc1ccc(C2=NOC3C4CC(C5N=NC45)C23)cc1 (stereo not shown) [drawing 399],Plant height,spring wheat [4]; 1.5 kg/ha,29.0 cm
same,"Plant height, % of untreated control",spring wheat [4]; 1.5 kg/ha,88.4%
same,Plant height,spring wheat [4]; 6.0 kg/ha,27.5 cm
same,"Plant height, % of untreated control",spring wheat [4]; 6.0 kg/ha,83.8%
Clc1ccc(C2=NOC3C4CC(C5N=NC45)C23)cc1 (stereo not shown) [drawing 426],"First mowing, growth height",grass; 3.0 kg/ha,21.0 cm
same,"First mowing, mowings",grass; 3.0 kg/ha,117.7 g
same,"Second mowing, growth height",grass; 3.0 kg/ha,18.5 cm
same,"Second mowing, mowings",grass; 3.0 kg/ha,75.3 g
same,"First mowing, growth height, relative",grass; 3.0 kg/ha,96.3
same,"First mowing, mowings, relative",grass; 3.0 kg/ha,87.7
same,"Second mowing, growth height, relative",grass; 3.0 kg/ha,92.5
same,"Second mowing, mowings, relative",grass; 3.0 kg/ha,83.1
same,"First mowing, growth height",grass; 6.0 kg/ha,18.5 cm
same,"First mowing, mowings",grass; 6.0 kg/ha,114.0 g
same,"Second mowing, growth height",grass; 6.0 kg/ha,17.0 cm
same,"Second mowing, mowings",grass; 6.0 kg/ha,72.1 g
same,"First mowing, growth height, relative",grass; 6.0 kg/ha,84.9
same,"First mowing, mowings, relative",grass; 6.0 kg/ha,84.9
same,"Second mowing, growth height, relative",grass; 6.0 kg/ha,85.0
same,"Second mowing, mowings, relative",grass; 6.0 kg/ha,79.6
Clc1ccc(C2N=NC3C4CC(C5N=NC45)C23)cc1 (stereo not shown) [drawing 410],Plant height,spring barley [3]; 1.5 kg/ha,22.0 cm
same,"Plant height, % of untreated control",spring barley [3]; 1.5 kg/ha,78.6%
same,Plant height,spring barley [3]; 6.0 kg/ha,19.5 cm
same,"Plant height, % of untreated control",spring barley [3]; 6.0 kg/ha,69.6%
O=[N+]([O-])c1ccc(C2=NOC3C4CC(C5N=NC45)C23)cc1 (stereo not shown) [drawing 406],Plant height,spring barley [1]; 3 kg/ha,27.0 cm
same,"Plant height, % of untreated control",spring barley [1]; 3 kg/ha,78.8%
same,Plant height,spring barley [1]; 12 kg/ha,24.0 cm
same,"Plant height, % of untreated control",spring barley [1]; 12 kg/ha,70.0%
Cc1ccc(C2=NOC3C4CC(C5N=NC45)C23)cc1 (stereo not shown) [drawing 395],Plant height,spring wheat [2]; 3 kg/ha,23.5 cm
same,"Plant height, % of untreated control",spring wheat [2]; 3 kg/ha,73.4%
same,Plant height,spring wheat [2]; 12 kg/ha,22.0 cm
same,"Plant height, % of untreated control",spring wheat [2]; 12 kg/ha,68.8%
Clc1ccc(C2N=NC3C4CC(C5N=NC45)C23)cc1 (stereo not shown) [drawing 425],"First mowing, growth height",grass; 3.0 kg/ha,20.0 cm
same,"First mowing, mowings",grass; 3.0 kg/ha,125.1 g
same,"Second mowing, growth height",grass; 3.0 kg/ha,19.0 cm
same,"Second mowing, mowings",grass; 3.0 kg/ha,89.9 g
same,"First mowing, growth height, relative",grass; 3.0 kg/ha,91.7
same,"First mowing, mowings, relative",grass; 3.0 kg/ha,93.2
same,"Second mowing, growth height, relative",grass; 3.0 kg/ha,95.0
same,"Second mowing, mowings, relative",grass; 3.0 kg/ha,99.2
same,"First mowing, growth height",grass; 6.0 kg/ha,18.0 cm
same,"First mowing, mowings",grass; 6.0 kg/ha,119.0 g
same,"Second mowing, growth height",grass; 6.0 kg/ha,19.0 cm
same,"Second mowing, mowings",grass; 6.0 kg/ha,92.2 g
same,"First mowing, growth height, relative",grass; 6.0 kg/ha,82.6
same,"First mowing, mowings, relative",grass; 6.0 kg/ha,88.7
same,"Second mowing, growth height, relative",grass; 6.0 kg/ha,95.0
same,"Second mowing, mowings, relative",grass; 6.0 kg/ha,101.8
Cc1ccc(C2=NOC3C4CC(C5N=NC45)C23)cc1 (stereo not shown) [drawing 407],Plant height,spring barley [1]; 3 kg/ha,25.0 cm
same,"Plant height, % of untreated control",spring barley [1]; 3 kg/ha,72.9%
same,Plant height,spring barley [1]; 12 kg/ha,21.0 cm
same,"Plant height, % of untreated control",spring barley [1]; 12 kg/ha,61.2%
Clc1ccc(C2=NOC3C4CC(C5N=NC45)C23)cc1 (stereo not shown) [drawing 397],Plant height,spring wheat [2]; 3 kg/ha,16.0 cm
same,"Plant height, % of untreated control",spring wheat [2]; 3 kg/ha,50.0%
same,Plant height,spring wheat [2]; 12 kg/ha,15.0 cm
same,"Plant height, % of untreated control",spring wheat [2]; 12 kg/ha,46.9%
